Measurements from PubChem BioAssay (NCI).
Where “and” joins values, the source holds several entries; their conditions need not be identical. Equal entries are not always repeated.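 Briefly, cells in 96-well plates were exposed to five compound concentrations for 48 h, and endpoints were estimated by linear interpolation. GI50 marks 50% less growth. The concentration for full growth arrest is given as TGI.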

What was measured:
Test in all cases: inhibition of tumour cell growth, NCI panel, 48 h
[1] = test system: 786-0 renal
[2] = test system: BT-549 breast
[3] = test system: CCRF-CEM leukemia
[4] = test system: HOP-92 NSCLC
[5] = test system: MDA-MB-435
[6] = test system: NCI-H23 lung
[7] = test system: RXF 393 renal
[8] = test system: SF-539 CNS
[9] = test system: SW-620 colon
[10] = test system: TK-10 renal

| SMILES | TGI [1] | TGI [2] | TGI [3] | TGI [4] | TGI [5] | TGI [6] | TGI [7] | TGI [8] | TGI [9] | TGI [10] | GI50 [1] | GI50 [2] | GI50 [3] | GI50 [4] | GI50 [5] | GI50 [6] | GI50 [7] | GI50 [8] | GI50 [9] | GI50 [10] |
| --- | --- | --- | --- | --- | --- | --- | --- | --- | --- | --- | --- | --- | --- | --- | --- | --- | --- | --- | --- | --- |
| Cc1cc(N2CCN(C)CC2)n2nc(-c3ccc(Cl)cc3)nc2n1 | > 100 µM | > 100 µM | > 100 µM | > 100 µM | > 100 µM | > 100 µM | > 100 µM | > 100 µM | > 100 µM | > 100 µM | – | – | – | – | – | – | – | – | – | – |
| COc1nnc2ccc(N3CCC(c4ccc(OCCN5CCN(C)C(=O)[C@H]5C)cc4)CC3)nn12 | > 100 µM | > 100 µM | > 100 µM | > 65.3 µM | > 100 µM | > 100 µM | > 100 µM | > 100 µM | > 100 µM | > 70.2 µM | 0.186 µM | 1.87 µM | 0.323 µM | 0.0541 µM | 0.0569 µM | 0.356 µM | 3.85 µM | 0.116 µM | 5.03 µM | 0.0555 µM |
| CN(CC(=O)N(Cc1ccc(C2CCCCC2)cc1)c1ccc(C(=O)O)cc1)S(=O)(=O)c1c(F)c(F)c(F)c(F)c1F | 5.22 µM | 4.36 µM | 6.81 µM | 4.02 µM | 3.19 µM | 3.81 µM | 3.37 µM | 3.26 µM | 4.05 µM | 10.5 µM | 2.28 µM | 2.23 µM | 2.69 µM | 2.11 µM | 1.75 µM | 1.92 µM | 1.93 µM | 1.69 µM | 2.03 µM | 2.75 µM |
| CC[n+]1c(/C=C/C=C2\N(C)c3ccccc3C2(C)C)sc2ccccc21 | 8.38 µM | 8.6 µM | 18.1 µM | 10.8 µM | 7.66 µM | 7.09 µM | 10.3 µM | 7.5 µM | 8.27 µM | 13.2 µM | 4.33 µM | 4.3 µM | 4.96 µM | 3.54 µM | 3.98 µM | 2.75 µM | 4.33 µM | 4 µM | 4.19 µM | 5.06 µM |
| c1cc2c(cn1)Nc1ccncc1S2 | 78.1 µM | > 100 µM | > 100 µM | 76.6 µM | > 100 µM | > 100 µM | 42.3 µM | > 100 µM | > 100 µM | > 100 µM | 23.7 µM | 59.5 µM | 37.3 µM | 8.52 µM | 73.9 µM | 43.4 µM | 15.6 µM | 33.8 µM | 35.4 µM | 42.7 µM |
| CC1=C(C(=O)Nc2ccc(Cl)c(C(=O)OC(C)C)c2)SCCO1 | > 100 µM | > 100 µM | 65.1 µM | > 100 µM | > 100 µM | 96.3 µM | > 97.7 µM | > 97 µM | > 79.4 µM | > 100 µM | – | – | – | – | – | – | – | – | – | – |
| Cc1cc([N+](=O)[O-])c2ccccc2[n+]1[O-] | 0.483 µM and 0.75 µM | 0.879 µM and 1.63 µM | > 47.8 µM and 7.18 µM | 1.73 µM and 0.597 µM | 1.58 µM and 1.2 µM | 2.51 µM and 3.75 µM | 0.455 µM and 0.512 µM | 1.2 µM and 0.867 µM | 0.766 µM and 0.523 µM | 0.541 µM and 0.623 µM | 0.158 µM and 0.258 µM | 0.216 µM and 0.388 µM | 2.24 µM and 0.65 µM | 0.308 µM and 0.153 µM | 0.336 µM and 0.286 µM | 0.504 µM and 0.59 µM | 0.181 µM and 0.17 µM | 0.303 µM and 0.214 µM | 0.0728 µM and 0.0543 µM | 0.187 µM and 0.21 µM |
| NC(=S)c1c(N)n(C2OC(CO)C(O)C2O)c2ncnc(N)c12 (stereo not drawn) | – | 0.475 µM | 0.773 µM | 3.43 µM | 1.01 µM | 1.14 µM | 0.557 µM | 1.06 µM | 0.836 µM | 3.56 µM | 0.304 µM | 0.17 µM | 0.241 µM | 0.302 µM | 0.259 µM | 0.258 µM | 0.237 µM | 0.241 µM | 0.177 µM | 0.297 µM |
| CCOC(=O)c1cnc2c(C)cccc2c1Nc1ccc(C(C)=O)cc1 | 42.3 µM | 59.3 µM | > 100 µM | 36.9 µM | > 100 µM | > 100 µM | 63.8 µM | > 100 µM | > 100 µM | 82.9 µM | 16.9 µM | 16.1 µM | > 100 µM | 8.95 µM | > 100 µM | 28.5 µM | 4.23 µM | 34.3 µM | 92.6 µM | 32.8 µM |
| CN1C(=O)C2(c3ccccc31)N(c1ccc(Cl)cc1)C(=O)C2(c1ccccc1)c1ccccc1 (stereo not drawn) | > 100 µM | > 100 µM | > 100 µM | 49.1 µM | > 100 µM | > 100 µM | > 100 µM | > 100 µM | > 100 µM | > 100 µM | > 100 µM | > 100 µM | 9.72 µM | 5.62 µM | > 100 µM | 64.7 µM | 64.6 µM | > 100 µM | > 100 µM | > 100 µM |
| O=C1NC(=NCCCc2ccccc2)S/C1=C\c1ccc2ncccc2c1 | 13 µM | 10.4 µM | > 25 µM | 13.4 µM | > 18 µM | 15.8 µM | 10.4 µM | 9.49 µM | > 21.5 µM | 10.5 µM | 5.47 µM | 4.58 µM | 7.11 µM | 4.22 µM | 5.81 µM | 6.06 µM | 3.89 µM | 4.05 µM | 6.37 µM | 4.15 µM |
| CCCCCCCCCCCC[n+]1ccc2ccccc2c1 | 2.93 µM | 2.49 µM | 2.09 µM | 1.79 µM | 1.55 µM | 3.09 µM | 2.88 µM | 3.22 µM | 2.56 µM | 2.57 µM | 1.49 µM | 0.907 µM | 0.317 µM | 0.3 µM | 0.387 µM | 0.646 µM | 1.36 µM | 1.58 µM | 0.996 µM | 1.17 µM |
| C=CC(=O)N1CC2(CC(n3nc(-c4ccc5c(cnn5C)c4)c(-c4c(Cl)c(C)cc5[nH]ncc45)c3C)C2)C1 | 15.4 µM | 7.9 µM | 14.8 µM | 14.3 µM | 7.65 µM | 1.72 µM | 3.49 µM | 5.17 µM | 10.3 µM | 12.8 µM | 3.71 µM | 2.57 µM | 2.67 µM | 3.36 µM | 2.72 µM | – | 1.6 µM | 2.15 µM | 3.23 µM | 3.18 µM |
